These results are taken from US11919901B2 (Syndax Pharmaceuticals, Inc., priority 2021, dated 2024).

For this test, the target named is Menin-MLL (Homo sapiens (Human), UniProt O00255). As to the kind of experiment: Determination of binding constants (Ki) to Menin-MLL (HTRF). The following applies: HTRF, 0.25 nM H-FL-Menin, 3.2 nM FITC-MLL-4-43, 24 hr incubation; for Ki: read-out: Menin-MLL Ki HTRF Assay: Ki.
Menin-MLL, sequence (O00255 whole entry): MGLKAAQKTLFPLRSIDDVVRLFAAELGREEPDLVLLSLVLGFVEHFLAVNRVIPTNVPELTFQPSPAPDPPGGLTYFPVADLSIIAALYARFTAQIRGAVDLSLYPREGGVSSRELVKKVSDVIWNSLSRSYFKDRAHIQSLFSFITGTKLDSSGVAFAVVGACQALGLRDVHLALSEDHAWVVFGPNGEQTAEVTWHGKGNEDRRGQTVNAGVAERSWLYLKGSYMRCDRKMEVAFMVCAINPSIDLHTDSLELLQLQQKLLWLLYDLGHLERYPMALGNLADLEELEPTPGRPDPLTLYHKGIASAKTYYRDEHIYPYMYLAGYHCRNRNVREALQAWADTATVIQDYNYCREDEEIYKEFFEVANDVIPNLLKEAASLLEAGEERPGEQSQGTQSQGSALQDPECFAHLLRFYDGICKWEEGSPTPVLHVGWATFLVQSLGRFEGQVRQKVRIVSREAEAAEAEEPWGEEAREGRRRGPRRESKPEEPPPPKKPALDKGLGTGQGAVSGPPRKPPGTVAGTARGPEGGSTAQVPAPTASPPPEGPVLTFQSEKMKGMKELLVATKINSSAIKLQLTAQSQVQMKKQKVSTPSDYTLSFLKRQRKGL

As for `CC(C)N(CCC#N)C(=O)c1cc(F)ccc1Oc1cncnc1N1CC2(CCN(C[C@@H]3CC[C@@H](NS(=O)(=O)N4CCC4)CO3)CC2)C1` [Compound 184, 2-((4-(7-(((2S,5R)-5-(Azetidine-1-sulfonamido)tetrahydro-2H-pyran-2-yl)methyl)-2,7-diazaspiro[3.5]nonan-2-yl)pyrimidin-5-yl)oxy)-N-(2-cyanoethyl)-5-fluoro-N-isopropylbenzamide], the Ki – broadly, the dissociation constant of the complex between target and ligand, obtained from inhibition or displacement – is less than 1 nM.
Consider `CCS(=O)(=O)N[C@@H]1CC[C@@H](CN2CCC3(CC2)CN(c2ncncc2Oc2ccc(F)cc2C(=O)N(C(C)C)[C@@H]2CC[C@H]2O)C3)OC1` (single isomer, unassigned) [Compound 256], for which the concentration for a half-maximal effect (EC50) (commonly the concentration needed to bring the measured effect to its halfway point) is less than 50 nM and the Ki was less than 1 nM.
The like results for `CC(C)N(C(=O)c1cc(F)ccc1Oc1cncnc1N1CC2(CCN(C[C@@H]3CC[C@@H](NS(=O)(=O)C4COC4)CO3)CC2)C1)C1CC(F)(F)C1` [Compound 115, N-(3,3-Difluorocyclobutyl)-5-fluoro-N-isopropyl-2-((4-(7-(((2S,5R)-5-(oxetane-3-sulfonamido)tetrahydro-2H-pyran-2-yl)methyl)-2,7-diazaspiro[3.5]nonan-2-yl)pyrimidin-5-yl)oxy)benzamide] were, in that order, less than 50 nM and less than 1 nM.
The like results for `CCN(C(=O)c1cc(F)ccc1Oc1cncnc1N1CC2(CCN(C[C@@H]3CC[C@@H](NS(=O)(=O)c4ccc(C)cc4)CO3)CC2)C1)C(C)C` [Compound 55, N-Ethyl-5-fluoro-N-isopropyl-2-((4-(7-(((2S,5R)-5-((4-methylphenyl)sulfonamido)tetrahydro-2H-pyran-2-yl)methyl)-2,7-diazaspiro[3.5]nonan-2-yl)pyrimidin-5-yl)oxy)benzamide] were, in that order, less than 50 nM and less than 1 nM.
The like results for `CC(C)N(CC(F)F)C(=O)c1cc(F)ccc1Oc1cncnc1N1CC2(CCN(C[C@@H]3CC[C@@H](NS(=O)(=O)C4CCOCC4)CO3)CC2)C1` [Compound 98, N-(2,2-Difluoroethyl)-5-fluoro-N-isopropyl-2-((4-(7-(((2S,5R)-5-((tetrahydro-2H-pyran)-4-sulfonamido)tetrahydro-2H-pyran-2-yl)methyl)-2,7-diazaspiro[3.5]nonan-2-yl)pyrimidin-5-yl)oxy)benzamide] were, in that order, less than 50 nM and less than 1 nM.
Turning to `CCS(=O)(=O)N[C@@H]1CC[C@@H](CN2CCC3(CC2)CN(c2ncncc2Oc2ccc(F)cc2C(=O)N(C(C)C)[C@@H]2C[C@@H]4CC[C@H]2O4)C3)OC1` [Compound 251, N-((lR,2R,4S)-7-Oxabicyclo[2.2.1]heptan-2-yl)-2-((4-(7-(((2S,5R)-5-(ethylsulfonamido)tetrahydro-2H-pyran-2-yl)methyl)-2,7-diazaspiro[3.5]nonan-2-yl)pyrimidin-5-yl)oxy)-5-fluoro-N-isopropylbenzamide], the Ki was less than 1 nM.
As for `CC(C)N(C(=O)c1cc(F)ccc1Oc1cncnc1N1CC2(CCN(C[C@@H]3CC[C@@H](NS(=O)(=O)N4CC5(COC5)C4)CO3)CC2)C1)C(C)C` [Compound 222, 2-((4-(7-(((2S,5R)-5-(2-Oxa-6-azaspiro[3.3]heptane-6-sulfonamido)tetrahydro-2H-pyran-2-yl)methyl)-2,7-diazaspiro[3.5]nonan-2-yl)pyrimidin-5-yl)oxy)-5-fluoro-N,N-diisopropylbenzamide], the Ki is less than 1 nM.
The same measure, in the same setting: with `CCn1cc(S(=O)(=O)N[C@@H]2CC[C@@H](CN3CCC4(CC3)CN(c3ncncc3Oc3ccc(F)cc3C(=O)N(CC(F)F)C(C)C)C4)OC2)cn1` [Compound 106, N-(2,2-Difluoroethyl)-2-((4-(7-(((2S,5R)-5-((1-ethyl-1H-pyrazole)-4-sulfonamido)tetrahydro-2H-pyran-2-yl)methyl)-2,7-diazaspiro[3.5]nonan-2-yl)pyrimidin-5-yl)oxy)-5-fluoro-N-isopropylbenzamide] the figure was less than 1 nM; with `Cc1nc(S(=O)(=O)N[C@@H]2CC[C@@H](CN3CCC4(CC3)CN(c3ncncc3Oc3ccc(F)cc3C(=O)N(C(C)C)[C@@H]3CCOC3)C4)OC2)cs1` [Compound 133, 5-Fluoro-N-isopropyl-2-((4-(7-(((2S,5R)-5-((2-methylthiazole)-4-sulfonamido)tetrahydro-2H-pyran-2-yl)methyl)-2,7-diazaspiro[3.5]nonan-2-yl)pyrimidin-5-yl)oxy)-N-((R)-tetrahydrofuran-3-yl)benzamide], less than 1 nM.
In the case of `CCN(C(=O)c1cc(F)ccc1Oc1cncnc1N1CC2(CCN(C[C@@H]3CC[C@@H](NC(=O)NCC(F)F)CO3)CC2)C1)C(C)C` [Compound 41, 2-((4-(7-(((2S,5R)-5-(3-(2,2-difluoroethyl)ureido)tetrahydro-2H-pyran-2-yl)methyl)-2,7-diazaspiro[3.5]nonan-2-yl)pyrimidin-5-yl)oxy)-N-ethyl-5-fluoro-N-isopropylbenzamide], the EC50 lay in the range of 50 to 100 nM and the inhibition constant Ki is less than 1 nM.
Consider `CC(C)N(C(=O)c1cc(F)ccc1Oc1cncnc1N1CC2(CCN(C[C@@H]3CC[C@@H](NS(=O)(=O)N4CCC[C@@H]4C)CO3)CC2)C1)[C@@H]1CCOC1` [Compound 205, 5-Fluoro-N-isopropyl-2-((4-(7-(((2S,5R)-5-(((S)-2-methylpyrrolidine)-1-sulfonamido)tetrahydro-2H-pyran-2-yl)methyl)-2,7-diazaspiro[3.5]nonan-2-yl)pyrimidin-5-yl)oxy)-N-((R)-tetrahydrofuran-3-yl)benzamide], for which the Ki was less than 1 nM.
On to `CC(C)N(C(=O)c1cc(F)ccc1Oc1cncnc1N1CC2(CCN(C[C@@H]3CC[C@@H](NS(C)(=O)=O)CO3)CC2)C1)C1CC1` [Compound 18, N-cyclopropyl-5-fluoro-N-isopropyl-2-((4-(7-(((2S,5R)-5-(methylsulfonamido)tetrahydro-2H-pyran-2-yl)methyl)-2,7-diazaspiro[3.5]nonan-2-yl)pyrimidin-5-yl)oxy)benzamide], for which the EC50 is less than 50 nM and the Ki was less than 1 nM.
For `CCN(C)S(=O)(=O)N[C@@H]1CC[C@@H](CN2CCC3(CC2)CN(c2ncncc2Oc2ccc(F)cc2C(=O)N(C(C)C)[C@H]2CCOC2)C3)OC1` [Compound 179, 2-((4-(7-(((2S,5R)-5-((N-Ethyl-N-methylsulfamoyl)amino)tetrahydro-2H-pyran-2-yl)methyl)-2,7-diazaspiro[3.5]nonan-2-yl)pyrimidin-5-yl)oxy)-5-fluoro-N-isopropyl-N-((S)-tetrahydrofuran-3-yl)benzamide], the Ki was less than 1 nM.
`Cc1ncc(S(=O)(=O)N[C@@H]2CC[C@@H](CN3CCC4(CC3)CN(c3ncncc3Oc3ccc(F)cc3C(=O)N(C(C)C)C(C)C)C4)OC2)[nH]1` [Compound 234, 5-Fluoro-N,N-diisopropyl-2-((4-(7-(((2S,5R)-5-((2-methyl-1H-imidazole)-5-sulfonamido)tetrahydro-2H-pyran-2-yl)methyl)-2,7-diazaspiro[3.5]nonan-2-yl)pyrimidin-5-yl)oxy)benzamide]: the inhibition constant Ki is less than 1 nM.
Same read-out and setting: the same measure for `CCS(=O)(=O)N[C@@H]1CC[C@@H](CN2CCC3(CC2)CN(c2ncnnc2Oc2ccc(F)cc2C(=O)N(C(C)C)C(C)C)C3)OC1` [Compound 195, 2-((5-(7-(((2S,5R)-5-(Ethylsulfonamido)tetrahydro-2H-pyran-2-yl)methyl)-2,7-diazaspiro[3.5]nonan-2-yl)-1,2,4-triazin-6-yl)oxy)-5-fluoro-N,N-diisopropylbenzamide]: less than 1 nM.
